molecular target: T1, human V1a receptor (Homo sapiens, UniProt P37288); experiment: human V1a receptor binding, 3H-Vasopressin SPA on membranes of transfected HEK293 cells; conditions: displacement of 4 nM 3H-Vasopressin; HEK293 cell membranes; 1 h at room temperature; Ki from IC50 by the Cheng-Prussoff equation
T1 construct: expressed in transfected cells; host or cells: HEK293 cells, transiently transfected; membrane preparation
Protocol: The human V1a receptor was cloned by RT-PCR from total human liver RNA. The coding sequence was subcloned in an expression vector after sequencing to confirm the identity of the amplified sequence. […] Cell membranes were prepared from HEK293 cells transiently transfected with the expression vector and grown in 20 liter fermenters with the following protocol.
50 g of cells are resuspended in 30 ml freshly prepared ice cold Lysis buffer (50 mM HEPES, 1 mM EDTA, 10 mM MgCl2 adjusted to pH=7.4+ complete cocktail of protease inhibitor (Roche Diagnostics)). Homogenized with Polytron for 1 min and sonicated on ice for 2×2 minutes at 80% intensity (Vibracell sonicator). The preparation is centrifuged 20 min at 500 g at 4° C., the pellet is discarded, and the supernatant centrifuged 1 hour at 43,000 g at 4° C. (19,000 rpm). The pellet is resuspended in 12.5 ml Lysis buffer+12.5 ml Sucrose 20% and homogenized using a Polytron for 1-2 min. The protein concentration is determined by the Bradford method, and aliquots are stored at −80° C. until use. For binding studies 60 mg Yttrium silicate SPA beads (Amersham) are mixed with an aliquot of membrane in binding buffer (50 mM Tris, 120 mM NaCl, 5 mM, KCl, 2 mM CaCl2, 10 mM MgCl2) for 15 minutes with mixing. 50 ul of bead/membrane mixture is then added to each well of a 96 well plate, followed by 50 ul of 4 nM 3H-Vasopressin (American Radiolabeled Chemicals). For total binding measurement, 100 ul of binding buffer are added to the respective wells, for non-specific binding 100 ul of […] cold vasopressin and for compound testing 100 ul of a serial dilution of each compound in 2% DMSO. The plate is incubated 1 h at room temperature, centrifuged 1 min at 1000 g and counted on a Packard Top-Count. Non-specific binding counts are subtracted from each well, and data is normalized to the maximum specific binding set at 100%. To calculate an IC 50, the curve is fitted using a non-linear regression model (XLfit), and the Ki is calculated using the Cheng-Prussoff equation.

T1 sequence (P37288 whole entry): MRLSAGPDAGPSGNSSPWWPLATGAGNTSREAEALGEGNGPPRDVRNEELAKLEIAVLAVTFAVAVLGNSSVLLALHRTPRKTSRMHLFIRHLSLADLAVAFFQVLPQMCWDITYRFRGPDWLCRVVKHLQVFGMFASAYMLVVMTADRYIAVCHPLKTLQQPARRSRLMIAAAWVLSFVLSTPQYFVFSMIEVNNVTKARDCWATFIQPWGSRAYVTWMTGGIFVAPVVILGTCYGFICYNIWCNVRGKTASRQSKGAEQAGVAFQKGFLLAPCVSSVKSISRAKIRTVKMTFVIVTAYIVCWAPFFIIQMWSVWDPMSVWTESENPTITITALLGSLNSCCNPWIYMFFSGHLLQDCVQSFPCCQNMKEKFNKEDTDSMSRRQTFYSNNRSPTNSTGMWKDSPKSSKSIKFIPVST

SMILES | Ki
O=C(c1cn(Cc2cccc(F)c2)c2cc(Cl)ccc12)N1CCC(n2c(=O)[nH]c3ccccc32)CC1 [Example 34, 1-{1-[6-Chloro-1-(3-fluoro-benzyl)-1H-indole-3-carbonyl]-piperidin-4-yl}-1,3-dihydro-benzoimidazol-2-one] | 9 nM
O=C(c1cn(CC2CCCCC2)c2ccccc12)N1CCC(n2c(=O)[nH]c3ccccc32)CC1 [Example 25, 1-[1-(1-Cyclohexylmethyl-1H-indole-3-carbonyl)-piperidin-4-yl]-1,3-dihydro-benzoimidazol-2-one] | 20 nM
CN(C)C(=O)Cn1cc(C(=O)N2CCC(n3c(=O)[nH]c4ccccc43)CC2)c2ccc(Cl)cc21 [Example 46, 2-{6-Chloro-3-[4-(2-oxo-2,3-dihydro-benzoimidazol-1-yl)-piperidine-1-carbonyl]-indol-1-yl}-N,N-dimethyl-acetamide] | 2 nM
O=C(c1cn(C(=O)N2CCCCC2)c2cc(Cl)ccc12)N1CCC(n2c(=O)[nH]c3ccccc32)CC1 [Example 41, 1-{1-[6-Chloro-1-(piperidine-1-carbonyl)-1H-indole-3-carbonyl]-piperidin-4-yl}-1,3-dihydro-benzoimidazol-2-one] | 14 nM
O=C(c1cn(C(=O)c2cccc(F)c2F)c2cc(Cl)ccc12)N1CCC(n2c(=O)[nH]c3ccccc32)CC1 [Example 31, 1-{1-[6-Chloro-1-(2,3-difluoro-benzoyl)-1H-indole-3-carbonyl]-piperidin-4-yl}-1,3-dihydro-benzoimidazol-2-one] | 25 nM
O=C(c1c[nH]c2cc(Cl)ccc12)N1CCC(n2c(=O)[nH]c3ccccc32)CC1 [Example 18, 1-[1-(6-Chloro-1H-indole-3-carbonyl)-piperidin-4-yl]-1,3-dihydro-benzoimidazol-2-one] | 7 nM
O=C(c1cn(Cc2ccccc2)c2cc(Cl)ccc12)N1CCC(n2c(=O)[nH]c3ccccc32)CC1 [Example 24, 1-[1-(1-Benzyl-6-chloro-1H-indole-3-carbonyl)-piperidin-4-yl]-1,3-dihydro-benzoimidazol-2-one] | 2 nM
CC(C)n1cc(C(=O)N2CCC(n3c(=O)[nH]c4ccccc43)CC2)c2ccc(F)cc21 [Example 12, 1-[1-(6-Fluoro-1-isopropyl-1H-indole-3-carbonyl)-piperidin-4-yl]-1,3-dihydro-benzoimidazol-2-one] | 13 nM
O=C(c1cn(C(=O)c2ccccc2F)c2cc(Cl)ccc12)N1CCC(n2c(=O)[nH]c3ccccc32)CC1 [Example 30, 1-{1-[6-Chloro-1-(2-fluoro-benzoyl)-1H-indole-3-carbonyl]-piperidin-4-yl}-1,3-dihydro-benzoimidazol-2-one] | 35 nM
O=C(Cn1cc(C(=O)N2CCC(n3c(=O)[nH]c4ccccc43)CC2)c2ccc(Cl)cc21)c1ccc(F)cc1F [Example 36, 1-(1-{6-Chloro-1-[2-(2,4-difluoro-phenyl)-2-oxo-ethyl]-1H-indole-3-carbonyl}-piperidin-4-yl)-1,3-dihydro-benzoimidazol-2-one] | 6 nM
CN(C)CCn1c(=O)n(C2CCN(C(=O)c3c[nH]c4cc(Cl)ccc34)CC2)c2ccccc21 [Example 27, 1-[1-(6-Chloro-1H-indole-3-carbonyl)-piperidin-4-yl]-3-(2-dimethylamino-ethyl)-1,3-dihydro-benzoimidazol-2-one] | 5 nM
O=C(Cn1cc(C(=O)N2CCC(n3c(=O)[nH]c4ccccc43)CC2)c2ccc(Cl)cc21)c1ccc(F)c(F)c1 [Example 39, 1-(1-{6-Chloro-1-[2-(3,4-difluoro-phenyl)-2-oxo-ethyl]-1H-indole-3-carbonyl}-piperidin-4-yl)-1,3-dihydro-benzoimidazol-2-one] | 18 nM
Cc1c(C(=O)N2CCC(n3c(=O)n(CCN(C)C)c4ccccc43)CC2)c2ccccc2n1Cc1ccccc1 [Example 20, 1-[1-(1-Benzyl-2-methyl-1H-indole-3-carbonyl)-piperidin-4-yl]-3-(2-dimethylamino-ethyl)-1,3-dihydro-benzoimidazol-2-one] | 5 nM

Reference: patent US7803815B2, “Indol-3-yl-corbonyl-piperidin-benzoimidazol derivatives” (Hoffmann-La Roche Inc., priority 2005, dated 2010)
